This note sets out measurements from patent publication US5132313A, “Non-competitive NMDA receptor antagonists and methods for their use” (priority 1989, dated 1992).

The assay deals with PCP binding sites of the NMDA receptor complex. Also noted: species or system rat. Particulars: for IC50: displacing (+)-[3H]MK-801 bound to rat brain homogenates, 0.5-1 nM radioligand, 100 μM glutamate, 30 μM glycine, 2 h room temperature, pH 7.4, mean of three experiments in duplicate ±SEM; for binding potency compared with corresponding S enantiomer: R enantiomers 1, 3, 5, 7 versus 2, 4, 6, 8; for Relative Potency (%): relative to PCP = 100%, displacing (+)-[3H]MK-801.

In general, IC50 refers to the concentration that inhibits the measured activity by half. Low readings indicate greater potency, high ones weaker potency. Turning to `N[C@]12CC=CC[C@H]1Cc1ccccc12` [Compound 1], the IC50 came to 114 ± 14 nM and the “Relative Potency (%)” value is recorded as 31%. The “binding potency compared with corresponding S enantiomer” value (in words) is “more potent in binding than the corresponding enantiomers of S stereochemistry”.
Consider `N[C@@]12CC=CC[C@@H]1Cc1ccccc12` [Compound 2], for which the half-inhibitory concentration (IC50) was found to be 2240 ± 135 nM and the “Relative Potency (%)” value is listed as 2%.
`N[C@]12CCCC[C@H]1Cc1ccccc12` [Compound 3]: the IC50 came out at 19 ± 1 nM and the “Relative Potency (%)” value is listed as 184%. For the same molecule, the “binding difference between enantiomeric pair of compounds 3 and 4” value (compound 3 (R) versus compound 4 (S)) was found to be 73 fold. Further, where the note is “in words”, the “binding potency compared with PCP” value is given as “more potent in binding than PCP” and the “binding potency compared with corresponding S enantiomer” value is given as “more potent in binding than the corresponding enantiomers of S stereochemistry”.
For the molecule `N[C@@]12CCCC[C@@H]1Cc1ccccc12` [Compound 4], the IC50 was 1390 ± 49 nM and the “Relative Potency (%)” value was 3%.
As for `CCN[C@]12CCCC[C@H]1Cc1ccccc12` [Compound 7], the IC50 was determined as 68 ± 7 nM and the “Relative Potency (%)” value is recorded as 51%. Where the note is “in words”, the “binding potency compared with corresponding S enantiomer” value is on record as “more potent in binding than the corresponding enantiomers of S stereochemistry”.
As for `CCN[C@@]12CCCC[C@@H]1Cc1ccccc12` [Compound 8], the IC50 worked out at 546 ± 40 nM and the “Relative Potency (%)” value amounted to 6%.
In the case of `c1ccc(C2(N3CCCCC3)CCCCC2)cc1` [PCP, phencyclidine, reference compound], the IC50 was 35 ± 1 nM and the “Relative Potency (%)” value is recorded as 100%.
Consider `c1csc(C2(N3CCCCC3)CCCCC2)c1` [TCP, 1-[1-(2-thienyl)-cyclohexyl]-piperidine, reference compound], for which the 50% inhibitory concentration (IC50) is 11 ± 1 nM and the “Relative Potency (%)” value was determined as 318%.
